Here are results for ten substances from patent publication US20190292223A1, “SAP AND PEPTIDOMIMETICS FOR TREATMENT OF EYE DISEASE” (Arch Biosurgery, Inc., priority 2018, published 2019).

Cy5.5 = Cy5.5 dye

Data set [1] relates to activated retinal microglial cells. Briefly: Lipopolysaccharide ocular inflammation model, 1 μl LPS alone or with SAP intravitreally, sacrifice after 24 hours (Example 2). It is filed as in vivo, Sprague-Dawley rats. On the procedure:
Adult white Sprague-Dawley rats with a weight of between 200 and 240 grams were housed in a 12 hours light/12 hours night cycle with free access to food and water. The animals were randomly divided into a study or control groups.
Intravitreal injections, immunohistochemical staining and assessment of intraocular inflammation were generally performed as described in Example 1.
1 μl sterile lipopolysaccharide (LPS; from S. typhimurium; catalog no. L-7261; Sigma-Aldrich, St. Louis, Mo.) either alone or in combination with (RADA)2 (SEQ ID NO: 88) solutions at 0.1%, 1.0%, and 10.0% were administered via direct intravitreal injections. The animals were sacrificed 24 hours after treatment. The experiments were repeated at least 5 times.
In some experiments, different SAP, including S2 (H2N(EARA)COOH; SEQ ID NO: 92), S3 (H2N(RARA)CONH2; SEQ ID NO: 413), and S5 (H2N(EARA)2CONH2; SEQ ID NO: 414), were evaluated as described above for (RADA)2 (SEQ ID NO: 88).
Finally, a conjugate of an EARA based SAP and a tissue-specific motif (MSCRAMM; SEQ ID NO: 141) was also evaluated using this lipopolysaccharide ocular inflammation model. Experiments were performed as described above for (RADA)2 (SEQ ID NO: 88). Briefly, 1 μl sterile lipopolysaccharide (LPS; from S. typhimurium; catalog no. L-7261; Sigma-Aldrich, St. Louis, Mo.) either alone or in combination with MSCRAMM(EARA)4 (SEQ ID NO: 432) solutions at 1.0%, and 3.0% were administered via direct intravitreal injections. The animals were sacrificed 24 hours after treatment. The experiments were repeated three times for each SAP conjugate concentration (that is, n=3 for 1%; n=3 for 3%).

The test system is the same in data set [2]. Kind of data set: Lipopolysaccharide ocular inflammation model, intravitreal co-injection, quantification of activated retinal microglial cells (Example 1). It is filed as in vivo, Sprague-Dawley rats. Also noted: TOTAL AREA WEIGHT (total retinal area weight-averaged density; amount of inflammation) / JEB #: unit not given here. Particulars: for JEB # / TOTAL AREA WEIGHT (total retinal area weight-averaged density; amount of inflammation): 0.5% RADA + LPS intravitreal. On the procedure:
The anti-inflammatory effect of SAP was examined using the lipopolysaccharide ocular inflammation model, and measurement of microglial cell activation was assessed as an indicator of inflammation. Morphological changes in macrophage cells, such as microglial cells, can be used as a marker of the presence and extent of inflammation. Methods for identifying and scoring variations in microglial cell morphology in response to inflammatory stimuli are described in the art (see, for example, Jonas, et al., PLoS ONE 7(2): e30763 (2012)).
Adult white Sprague-Dawley rats weighing between 200 and 240 grams were housed in a 12 hour light/12 hour night cycle with free access to food and water. The animals were randomly divided into study or control groups.
Animals were anesthetized by an intraperitoneal injection of xylazine 2% (5 mg/kg body weight) and ketamine 10% (100 mg/kg body weight). Topical anesthesia was additionally provided by repeated administration of proparacaine (0.5%) drops onto the cornea. A thorough disinfection of the ocular surface, the lid margins and the periocular skin was carried out with iodine 5% solution.
Using a glass pipette pulled to the size of a 30 gauge needle and attached to a syringe, 2 μl of sterile, pyrogen-free saline containing lipopolysaccharides from Salmonella typhimurium (catalog no. L-7261; Sigma-Aldrich, St. Louis, Mo.) was intravitreally injected.
For the primary experiment, the study included 40 Sprague-Dawley rats. All intravitreal injection volumes were of 2 μl, to reduce the effects of increased ocular pressure. All intravitreal injections of lipopolysaccharides (LPS) volumes were 4 μg at a concentration of 2 μg/μL.
The control groups (n=20) received either an intravitreal saline injection (n=5), lipopolysaccharide (LPS) alone ([…]), or no injection as a normal control group (n=5). Animals in the SAP study group (n=15) also received the self-assembling peptide (amino acid sequence RADARADARADARADA; “RADA-16”) in concentrations of 0.5% of SAP/2 μL.
At one, three and seven days after the injections, the animals were sacrificed, and the globes were immunohistochemically stained and histomorphometrically examined. The contralateral eye from the LPS group was also examined.
The eyes were embedded with Optimal Cutting Temperature compound (Tissue-Tek® O.C.T., Ted Pella, Inc. Redding, Calif.) after the lenses were removed. The globes were sectioned and placed on subbed slides. After being washed in 0.01M phosphate buffered saline for 10 minutes, the sections (15 μm) were immersed in a blocking solution containing 0.3% triton, 2.5% bovine serum albumin (BSA; Proliant Co, Ankeny, Iowa, USA) and 2% goat serum for 30 minutes. The sections were incubated in a primary antibody diluted solution overnight at 4° C., containing rabbit anti-IBA1 (Ionized calcium Binding Adaptor molecule 1; 1:500; Wako Pure Chemical Industries, Ltd. Osaka, Japan) and mouse anti rat CD 68 (ED1) (1:1000; AbD Serotech, D-40470 Dusseldorf, Germany). The sections were then washed in 0.01M phosphate buffered saline (10 minutes, 3 times), and incubated with secondary antibody diluted solution at room temperature for 2 hours (Goat-anti-rabbit 568, Goat-anti-mouse Alexa 488, (Invitrogen, Carlsbad, Calif., 1:400)). The slides were then washed in 0.01M phosphate buffered saline (10 minutes, 3 times) and cover slipped with fluorescein mounting medium with DAPI (4′,6-diamidin-2′-phenylindol-dihydrochloride; Dako Ltd, Glostrup, Denmark). All images were taken under a 20× objective with a Carl Zeiss Flour microscope (Carl Zeiss Inc. Oberkochen, Germany) fitted with a spot camera. All illumination levels were fixed during image acquisition.
The amount of intraocular inflammation was assessed by quantification of immunohistochemically labeled activated retinal microglial cells, which function as the immune mediators of the central nervous system. […]

On the set-up of data set [3]: species or system Sprague-Dawley rats. As to conditions: rat, in vivo. On the procedure:
The fate of SAP upon application to the eye was investigated. Specifically, the ability of SAP to reach the retina via application of eye drop solutions of the SAP to the cornea was evaluated using an SAP-Cy5 conjugate.
Adult white Sprague-Dawley rats weighing between 200 and 240 grams were housed in a 12 hour light/12 hour night cycle with free access to food and water. The animals were randomly divided into experimental or control groups.
Conjugates of Cy5.5 and RADA (SEQ ID NO: 57), Cy5.5 and RADARADA ((RADA)2; SEQ ID NO: 88), and Cy5.5 and H2N(RADA)4CONH2 (SEQ ID NO: 433) were prepared according to a modified protocol of Chen X., et al., Cancer Res., 64(21): 8009-8014 (2004).
In one experiment, RADA-4-Cy5.5 conjugate was prepared as follows: 0.5 mg of H2N(RADA)4CONH2 was dissolved in 50 μL of DMSO to a final concentration of […] in DMSO. The solution was mixed with 20 μL of diethyl isopropyl amine (DIPEA) to adjust the pH to 12. A solution of Cy5.5 dyes (1.0 mg in 20 μL of DMSO) was added at room temperature for conjugation and the mixture was periodically vortexed over 2 hours.
In some experiments, the RADA-4 solution was prepared with water as the solvent, for example: to a solution of RADA-4 (1.8 mg of H2N(RADA)4CONH2 (SEQ ID NO: 433) in 500 μL of Milli-Q water), 1 μL of Diisopropyl ethylene amine (DIPEA) was added to obtain pH 8 from 4. To prepare a working Cy5.5 stock, 165 μL of Milli-Q water was added to 165 μL Cy5.5 to make a 6.59×10^−7 M solution. The final conjugate was prepared by mixing equal volumes (165 μL) of the buffered (pH 8) (RADA)4 solution and Cy5.5 solution at room temperature for 2 hours.
Eye drops were applied to both eyes of rats. The experimental group of rats were administered 2 μL of Cy5.5-(RADA)4 conjugate via drops, while control rats were administered Cy5.5 only via drops. The experiments were repeated using Cy5.5 conjugated to RADA (Cy5.5(RADA)COOH; SEQ ID NO: 442) and Cy5.5 conjugated to (RADA)2 (Cy5.5(RADA)2COOH; SEQ ID NO: 444).
The rats were sacrificed 24 hours or 3 days post treatment. The eye balls of the rats were harvested and were then fixed in 4% paraformaldehyde (PFA) overnight. Excessive PFA was washed with 0.1M phosphate buffer (0.1MPB) 3 times (30 minutes each). The eyeballs were then dehydrated with 30% sucrose solution (30 g sucrose in 100 mL of 0.1 MPB) overnight, while replenishing the sucrose solution once for at least 6 hours. As necessary, the shape of the eyeballs was reformed with O.C.T. (Optimal Cutting Temperature compound; TISSUE-TEK® O.C.T.; CA) by injecting through the optic nerve. Each eye was embedded entirely in a mount with O.C.T. in liquid nitrogen to form frozen blocks. Blocks containing the eye samples were then sectioned at 20 microns and were placed on charged slides and allowed to dry. The slides were then rinsed to remove excess OCT and cover-slipped. The fate of the Cy5.5-RADA conjugate was investigated by tracing the color of the Cy5.5 in the eye. Visualization was performed with light microscopy and photographs were taken with a SPOT camera affixed to the Zeiss microscope.

[4] abbreviates: 1.0% and 3.0% solutions with LPS, 24 hours.

For the substance RADARADA [(RADA)2], the “signs of retinal inflammation compared to control (LPS alone)” value in data set [1] (all concentrations (0.1%, 1.0%, 10.0%), 24 hours, FIG. 4) is recorded as “marked reduction”. The “density of activated retinal microglial cells compared to controls (LPS alone)” value in data set [1] (combination injection with LPS, 24 hours) is on record as “significantly lower”.

“MSCRAMM(EARA)4 (MSCRAMMEARAEARAEARAEARA) [conjugate of an EARA based SAP and a tissue-specific motif (MSCRAMM]”: in data set [1] (setting [4]), the ED1 reactivity result was “no evidence of ED1 reactivity”, the “activation of microglia (JEB score)” value is listed as not above 4, the “inflammation in treated animals” value was “no inflammation” and the “signs of retinal inflammation compared to control (LPS only)” value is “reduction”.

On to “H2N(EARA)2CONH2 (H-EARAEARA-NH2) [SAP S5]”, for which the “signs of retinal inflammation compared to control” value in data set [1] (along with LPS, FIG. 5) is recorded as “marked reduction”.

For the substance RADARADARADARADA, the “JEB #” value was 11.63 in data set [2] (Day 1), 8.502 in data set [2] (Day 3) and 9.158 in data set [2] (Day 7). The “TOTAL AREA WEIGHT (total retinal area weight-averaged density; amount of inflammation)” value in data set [2] (Day 1) is reported as 74.99; in data set [2] (Day 1, listed as SAP), 75.0±26.6; in data set [2] (Day 3), 55.91; in data set [2] (Day 3, listed as SAP), 55.9±45.9; in data set [2] (Day 7) it was 52.66; in data set [2] (Day 7, listed as SAP), 52.7±47.7. The “amount of inflammation compared to normal or saline injected controls” value in data set [2] (0.5% SAP + LPS) was “no significant difference”. In data set [2] (0.5% SAP + LPS), the “level of inflammation compared to LPS-only control group” value was “significantly (P<0.001) lower”. Besides, the “density of activated retinal microglial cells compared to LPS controls” value in data set [2] (SAP + LPS vs LPS-only) is reported as “significantly lower”. In addition, the “signs of retinal inflammation” value in data set [2] (intraocular SAP along with LPS) is on record as “marked reduction”.

Regarding Cy5.5 [reference compound], in data set [3], the “pink coloration (Cy5.5) in the retina” value is on record as “no pink coloration was observed in any part of the retina or optic nerve head” and the “transport across the cornea / localization” value is reported as “not transported across the cornea”.

As for H2N(EARA)COOH (H-EARA-OH) [SAP S2], in data set [1] (along with LPS, FIG. 5), the “signs of retinal inflammation compared to control” value is listed as “marked reduction”.

Take “Cy5.5(RADA)COOH ({Cy5.5}-RADA-OH) [Cy5.5 conjugated to RADA]”: in data set [3], the localization entry is “localize to the retina”.

Turning to Cy5.5(RADA)4CONH2, in data set [3], the localization result was “localize to the retina”, the “pink coloration (Cy5.5) in the retina” value was “pink coloration was observed throughout the outer retina” and the “transport across the cornea / localization” value is given as “localize within the retina”.

With “Cy5.5(RADA)2COOH ({Cy5.5}-RADARADA-OH) [Cy5.5 conjugated to RADARADA]”, the localization entry in data set [3] was “localize to the retina”.

Take H2N(RARA)CONH2 (H-RARA-NH2) [SAP S3]: in data set [1] (along with LPS, FIG. 5), the LPS induced inflammation entry is “reduced LPS induced inflammation to normal levels” and the “signs of retinal inflammation compared to control” value was “marked reduction”.
